From ChEMBL document CHEMBL1781910, “Design, synthesis, and characterization of piperazinedione-based dual protein inhibitors for both farnesyltransferase and geranylgeranyltransferase-I” (Eur J Med Chem, 2011)
Calls of active or inactive are those of the source. The calls are words filed in the database; no cut-off is given here.

Tests used:
[1] = Inhibition of rat FTase using farnesylpyrophosphate and dansyl-GCVLS as substrate preincubated for 5 mins measured after 15 mins by fluorescence assay
[2] = Inhibition of rat GGTase-1 using geranylgeranyl-pyrophosphate and dansyl-GCVLL as substrate preincubated for 5 mins measured after 15 mins by fluorescence assay
Rattus norvegicus [3] = organism: Rattus norvegicus; assay: Bisubstrate inhibition of rat FTase at 20 to 40 nM using farnesylpyrophosphate and dansyl-GCVLS as substrate by double-reciprocal plot analysis
Rattus norvegicus [4] = organism: Rattus norvegicus; assay: Bisubstrate inhibition of rat GGTase-1 at 20 to 40 nM using geranylgeranyl-pyrophosphate and dansyl-GCVLL as substrate by double-reciprocal plot analysis

Compound	IC50 [1]	IC50 [2]	inhibition (Rattus norvegicus [3])	inhibition (Rattus norvegicus [4])
COc1ccc(CN2C(=O)CNC(=O)[C@@H]2CC(C)C)cc1	0.582 µM	3.92 µM	–	–
CC(C)C[C@H]1C(=O)NCC(=O)N1Cc1ccco1	0.476 µM	3.88 µM	–	–
COc1ccc(C[C@H]2C(=O)NCC(=O)N2Cc2ccco2)cc1	0.234 µM	1.05 µM	–	–
COc1ccc(CN2C(=O)CNC(=O)[C@@H]2C)cc1	1.1 µM	5.21 µM	–	–
CC(C)[C@H]1C(=O)NCC(=O)N1Cc1ccco1	0.541 µM	3.2 µM	–	–
COc1ccc(CN2C(=O)CNC(=O)[C@H]2Cc2ccccc2)cc1	0.142 µM	0.46 µM	–	–
O=C1NCC(=O)N(Cc2ccco2)[C@H]1Cc1c[nH]cn1	0.0972 µM	0.98 µM	–	–
COc1ccc(CN2C(=O)CNC(=O)[C@H]2C(C)C)cc1	0.479 µM	1.7 µM	–	–
COc1ccc(CN2C(=O)CNC(=O)[C@H]2CC(C)C)cc1	0.346 µM	1.2 µM	–	–
CC(C)[C@@H]1C(=O)NCC(=O)N1Cc1ccco1	0.346 µM	1.92 µM	–	–
CSCC[C@H]1C(=O)NCC(=O)N1Cc1ccco1	0.189 µM	1.89 µM	–	–
COc1ccc(CN2C(=O)CNC(=O)[C@@H]2C(C)C)cc1	0.774 µM	3.82 µM	–	–
C[C@@H]1C(=O)NCC(=O)N1Cc1ccco1	0.971 µM	3.83 µM	–	–
COc1ccc(CN2C(=O)CNC(=O)[C@@H]2Cc2ccccc2)cc1	0.183 µM	1.96 µM	–	–
O=C1NCC(=O)N(Cc2ccc(N3CCOCC3)cc2)[C@H]1Cc1c[nH]c2ccccc12	0.225 µM	0.123 µM	–	–
O=C1NCC(=O)N(Cc2ccco2)[C@@H]1Cc1c[nH]cn1	0.0706 µM	0.35 µM	–	–
COc1ccc(CN2C(=O)CNC(=O)[C@H]2C)cc1	0.621 µM	2.83 µM	–	–
COc1ccc(CN2C(=O)CNC(=O)[C@@H]2CCSC)cc1	0.19 µM	0.7 µM	–	–
O=C1NCC(=O)N(Cc2ccco2)[C@@H]1Cc1ccccc1	0.177 µM	0.62 µM	–	–
C[C@H]1C(=O)NCC(=O)N1Cc1ccco1	1.56 µM	5.22 µM	–	–
CC(C)C[C@@H]1C(=O)NCC(=O)N1Cc1ccco1	0.421 µM	1.66 µM	–	–
COc1ccc(C[C@H]2C(=O)NCC(=O)N2Cc2ccc(OC)cc2)cc1	0.188 µM	0.88 µM	–	–
O=C1NCC(=O)N(Cc2ccc(N3CCOCC3)cc2)[C@@H]1Cc1c[nH]c2ccccc12	0.132 µM	0.0881 µM	–	–
COc1ccc(C[C@@H]2C(=O)NCC(=O)N2Cc2ccc(OC)cc2)cc1	0.129 µM	0.38 µM	–	–
O=C1NCC(=O)N(Cc2ccco2)[C@H]1Cc1ccccc1	0.16 µM	1.82 µM	–	–

Now from value to molecule:

IC50 [1]	IC50 [2]	inhibition (Rattus norvegicus [3])	inhibition (Rattus norvegicus [4])	Compound
0.0265 µM	0.0965 µM	–	–	O=C1NCC(=O)N(Cc2ccc(Oc3cccc(Cl)c3)cc2)[C@H]1Cc1c[nH]c2ccccc12
0.0387 µM	0.13 µM	–	–	N#Cc1ccc(CN2C(=O)CNC(=O)[C@H]2Cc2c[nH]c3ccccc23)cc1
0.034 µM	0.219 µM	–	–	COc1c(Cl)cc(Cl)cc1CN1C(=O)CNC(=O)[C@@H]1Cc1c[nH]c2ccccc12
0.0451 µM	0.16 µM	–	–	COc1ccc(CN2C(=O)CNC(=O)[C@@H]2CSCc2ccccc2)cc1
0.0298 µM	0.12 µM	–	–	O=C1NCC(=O)N(Cc2ccc(Br)cc2)[C@@H]1Cc1c[nH]c2ccccc12
0.0785 µM	0.18 µM	–	–	COc1ccc(CN2C(=O)CNC(=O)[C@H]2Cc2c[nH]cn2)cc1
0.0221 µM	0.0782 µM	–	–	COc1c(Cl)cc(Cl)cc1CN1C(=O)CNC(=O)[C@H]1Cc1c[nH]c2ccccc12
0.0417 µM	0.63 µM	–	–	O=C1NCC(=O)N(Cc2ccc(Br)cc2)[C@H]1Cc1c[nH]c2ccccc12
0.0178 µM	0.0323 µM	–	–	O=C1NCC(=O)N(Cc2ccc(Oc3cccc(Cl)c3)cc2)[C@@H]1Cc1c[nH]c2ccccc12
0.107 µM	0.59 µM	–	–	COc1ccc(CN2C(=O)CNC(=O)[C@@H]2Cc2c[nH]cn2)cc1
0.118 µM	0.41 µM	–	–	COc1ccc(C[C@@H]2C(=O)NCC(=O)N2Cc2ccco2)cc1
0.0689 µM	0.27 µM	–	–	O=C1NCC(=O)N(Cc2ccco2)[C@H]1CSCc1ccccc1
0.042 µM	0.52 µM	–	–	O=C1NCC(=O)N(Cc2ccc(Cl)cc2)[C@H]1Cc1c[nH]c2ccccc12
0.109 µM	0.32 µM	–	–	COc1ccc(CN2C(=O)CNC(=O)[C@H]2CCSC)cc1
0.0223 µM	0.0923 µM	–	–	O=C1NCC(=O)N(Cc2ccc(Oc3ccc(Cl)c(Cl)c3)cc2)[C@H]1Cc1c[nH]c2ccccc12
0.0588 µM	0.52 µM	–	–	COc1ccc(CN2C(=O)CNC(=O)[C@@H]2Cc2c[nH]c3ccccc23)cc1
0.121 µM	0.73 µM	–	–	CSCC[C@@H]1C(=O)NCC(=O)N1Cc1ccco1
0.0131 µM	0.021 µM	Active	Active	O=C1NCC(=O)N(Cc2ccc(Oc3ccc(Cl)c(Cl)c3)cc2)[C@@H]1Cc1c[nH]c2ccccc12
0.0447 µM	0.48 µM	–	–	O=C1NCC(=O)N(Cc2ccc(F)cc2)[C@@H]1Cc1c[nH]c2ccccc12
0.0432 µM	0.32 µM	–	–	N#Cc1ccc(CN2C(=O)CNC(=O)[C@@H]2Cc2c[nH]c3ccccc23)cc1
0.0721 µM	0.79 µM	–	–	O=C1NCC(=O)N(Cc2ccco2)[C@H]1Cc1c[nH]c2ccccc12
0.0331 µM	0.17 µM	–	–	O=C1NCC(=O)N(Cc2ccc(Cl)cc2)[C@@H]1Cc1c[nH]c2ccccc12
0.0707 µM	0.47 µM	–	–	COc1ccc(CN2C(=O)CNC(=O)[C@H]2CSCc2ccccc2)cc1
0.0524 µM	0.22 µM	–	–	O=C1NCC(=O)N(Cc2ccco2)[C@@H]1Cc1c[nH]c2ccccc12
0.0991 µM	0.76 µM	–	–	O=C1NCC(=O)N(Cc2ccco2)[C@@H]1CSCc1ccccc1
0.0398 µM	0.15 µM	–	–	COc1ccc(CN2C(=O)CNC(=O)[C@H]2Cc2c[nH]c3ccccc23)cc1
0.0782 µM	0.77 µM	–	–	O=C1NCC(=O)N(Cc2ccc(F)cc2)[C@H]1Cc1c[nH]c2ccccc12
